Results as given in patent US11142535B2, “Heterocyclic compound as Syk inhibitor and/or Syk-HDAC dual inhibitor” (Hangzhou Innogate Pharma Co., Ltd., priority 2016, dated 2021).

Key:
SYK protein kinase = SYK protein kinase (Homo sapiens (Human), UniProt P43405); assay: Syk kinase activity inhibition, Caliper mobility shift assay; format: biochemical; conditions: Peptide FAM-P22 and ATP, 30 minutes, 28° C.
Description: Measure of SYK protein kinase activity was carried out by using the Caliper mobility shift assay. The compound was dissolved with DMSO and diluted with kinase buffer (20 mM HEPES pH 7.5, 0.01% Triton X-100, 5 mM MgCl2, 1 mM MnCl2, 2 mM DTT), and 5 μl of 5 times the final concentration of the compounds (10% DMSO) were added to 384 well plate. […] The mixture was incubated for 30 minutes under 28° C., and 25 μl of stop buffer (100 mM HEPES pH 7.5, 0.015% Brij-35, 0.2% Coating Reagent #3, 50 mM EDTA) was added to terminate the reaction. Conversion rate data was read by Caliper EZ Reader II (Caliper Life Sciences). Conversion rate was converted to inhibition rate data (% inhibition rate=(max−conversion rate)/(max−min)*100). The max refers to the conversion rate of the DMSO control, and min refers to the conversion rate of the enzyme-free control. The curve was drawn with the compound concentration and inhibition rate as the horizontal and vertical coordinates, and the curve was fitted with the XLFit excel add-in version 4.3.1 Software, and IC50 was calculated.

HDAC1 = HDAC1 (Homo sapiens (Human), UniProt Q13547); assay: HDAC-1 activity inhibition, fluorescence (Synergy MX); format: biochemical; conditions: trypsin and Ac-peptide substrate, 60 minutes, room temperature
Description: HDAC activity was measured by the Synergy MX Multi-Function Microplate Reader. The compounds were dissolved with DMSO, and transferred to a 384 well test plate using an Echo non-contact nanoscale sonic pipetting system. 15 μl of enzyme (HDAC1/HDAC6, respectively) solvent was added, and incubated at room temperature for 15 minutes, then 10 μl of substrate (trypsin and Ac-peptide) solution was added. […] Fluorescence intensity signal was convented into inhibition rate data (% inhibition rate=(max−fluorescence intensity)/(max−min)*100). The max refers to the fluorescence intensity of the DMSO control, and min refers to the fluorescence intensity of the enzyme-free control. The curve was drawn with the compound concentration and inhibition rate as the horizontal and vertical coordinates, and the curve was fitted with the GraphPad Prism V5.0 Software, and IC50 was calculated.

Sequence of HDAC1 (Q13547 whole entry, species assumed): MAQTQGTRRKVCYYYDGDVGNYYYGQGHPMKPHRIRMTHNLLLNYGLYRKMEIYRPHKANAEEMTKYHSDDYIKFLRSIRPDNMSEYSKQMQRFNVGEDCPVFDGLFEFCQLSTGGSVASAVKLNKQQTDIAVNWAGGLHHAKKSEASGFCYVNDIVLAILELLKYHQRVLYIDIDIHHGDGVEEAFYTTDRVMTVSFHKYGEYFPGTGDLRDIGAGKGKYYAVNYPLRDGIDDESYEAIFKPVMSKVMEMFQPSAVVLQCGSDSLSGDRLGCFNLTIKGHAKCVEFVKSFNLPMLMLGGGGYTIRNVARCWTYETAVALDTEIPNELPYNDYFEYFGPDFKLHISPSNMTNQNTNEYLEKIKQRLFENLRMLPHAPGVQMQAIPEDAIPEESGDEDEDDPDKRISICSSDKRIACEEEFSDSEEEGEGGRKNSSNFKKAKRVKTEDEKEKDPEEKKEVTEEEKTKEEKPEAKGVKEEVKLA

| IC50 (SYK protein kinase) | IC50 (HDAC1) | SMILES |
| --- | --- | --- |
| < 100 nM |  | O=C(N1CCN2c3ccc(Nc4nc(-c5ccc6cn[nH]c6c5)cn5ccnc45)cc3OC[C@H]2C1)C(F)(F)F [Compound 9R] |
| < 500 nM | < 20 nM | O=C(CCCCCCn1ncc2ccc(-c3cn4ccnc4c(Nc4ccc(N5CCOCC5)cc4)n3)cc21)NO [Compound 14] |
| < 50 nM | < 20 nM | CN(CCCCCCC(=O)NO)c1ccc(Nc2nc(-c3ccc4cn[nH]c4c3)cn3ccnc23)cc1 [Compound 20] |
| < 50 nM | < 30 nM | CN(CCN(C)c1ncc(C(=O)NO)cn1)c1ccc(Nc2nc(-c3ccc4cn[nH]c4c3)cn3ccnc23)cc1 [Compound 23] |
| < 50 nM | < 500 nM | CN(CCOCCC(=O)NO)c1ccc(Nc2nc(-c3ccc4cn[nH]c4c3)cn3ccnc23)cc1 [Compound 22] |
| < 100 nM | < 200 nM | O=C(NO)c1ccc(NC(=O)c2cccc(-c3cn4ccnc4c(Nc4ccc(N5CCOCC5)cc4)n3)c2)cc1 [Compound 13] |
